Literature values, collected in US8501405B2, “Real-time sequencing methods and systems” (Pacific Biosciences of California, Inc., priority 2009, dated 2013).
Read-outs that look alike come from different tables or passages of the source. Each block holds one molecule with its values, some of them ahead of it.

Columns and labels:
[1] = not given; remark: listed apart in the source
[2] = not given; remark: listed apart in the source
[3] = DNA polymerases with reverse transcriptase activity; available values for DNA-dependent DNA polymerization
[4] = DNA polymerases with reverse transcriptase activity, available values for DNA-dependent DNA polymerization
[5] = reverse transcriptases and RNA-dependent RNA polymerases, * wild-type or published mutants

Strand-displacement DNA synthesis [1, 4]: yes (degrades
Molecule: E. coli pol I: DNA polymerase with reverse transcriptase activity
Maximum speed (bases/s) [4]: 17 bases/s | Processivity (bases) [2, 4]: ~50 bases

Strand-displacement DNA synthesis [1, 4]: yes
Molecule: phi29: DNA polymerase with reverse transcriptase activity
Activity with phospholinked nucleotides [3]: yes | Maximum speed (bases/s) [4]: 100 bases/s | Processivity (bases) [2, 4]: >70,000 bases

B1: Thermus thermophilus: DNA polymerase with reverse transcriptase activity (protein, UniProt P52028 1-834, looked up)
DNA polymerase I, thermostable: MEAMLPLFEPKGRVLLVDGHHLAYRTFFALKGLTTSRGEPVQAVYGFAKSLLKALKEDGYKAVFVVFDAKAPSFRHEAYEAYKAGRAPTPEDFPRQLALIKELVDLLGFTRLEVPGYEADDVLATLAKKAEKEGYEVRILTADRDLYQLVSDRVAVLHPEGHLITPEWLWEKYGLRPEQWVDFRALVGDPSDNLPGVKGIGEKTALKLLKEWGSLENLLKNLDRVKPENVREKIKAHLEDLRLSLELSRVRTDLPLEVDLAQGREPDREGLRAFLERLEFGSLLHEFGLLEAPAPLEEAPWPPPEGAFVGFVLSRPEPMWAELKALAACRDGRVHRAADPLAGLKDLKEVRGLLAKDLAVLASREGLDLVPGDDPMLLAYLLDPSNTTPEGVARRYGGEWTEDAAHRALLSERLHRNLLKRLEGEEKLLWLYHEVEKPLSRVLAHMEATGVRLDVAYLQALSLELAEEIRRLEEEVFRLAGHPFNLNSRDQLERVLFDELRLPALGKTQKTGKRSTSAAVLEALREAHPIVEKILQHRELTKLKNTYVDPLPSLVHPRTGRLHTRFNQTATATGRLSSSDPNLQNIPVRTPLGQRIRRAFVAEAGWALVALDYSQIELRVLAHLSGDENLIRVFQEGKDIHTQTASWMFGVPPEAVDPLMRRAAKTVNFGVLYGMSAHRLSQELAIPYEEAVAFIERYFQSFPKVRAWIEKTLEEGRKRGYVETLFGRRRYVPDLNARVKSVREAAERMAFNMPVQGTAADLMKLAMVKLFPRLREMGARMLLQVHDELLLEAPQARAEEVAALAKEAMEKAYPLAVPLEVEVGMGEDWLSAKG
Maximum speed (bases/s) [4]: 120 bases/s | Processivity (bases) [2, 4]: 300 bases

Strand-displacement DNA synthesis ([1]; reverse transcriptases and RNA-dependent RNA polymerases): yes
B2: phi6: RNA-dependent RNA polymerase (protein, UniProt P11124 2-665, looked up)
RNA-directed RNA polymerase: PRRAPAFPLSDIKAQMLFANNIKAQQASKRSFKEGAIETYEGLLSVDPRFLSFKNELSRYLTDHFPANVDEYGRVYGNGVRTNFFGMRHMNGFPMIPATWPLASNLKKRADADLADGPVSERDNLLFRAAVRLMFSDLEPVPLKIRKGSSTCIPYFSNDMGTKIEIAERALEKAEEAGNLMLQGKFDDAYQLHQMGGAYYVVYRAQSTDAITLDPKTGKFVSKDRMVADFEYAVTGGEQGSLFAASKDASRLKEQYGIDVPDGFFCERRRTAMGGPFALNAPIMAVAQPVRNKIYSKYAYTFHHTTRLNKEEKVKEWSLCVATDVSDHDTFWPGWLRDLICDELLNMGYAPWWVKLFETSLKLPVYVGAPAPEQGHTLLGDPSNPDLEVGLSSGQGATDLMGTLLMSITYLVMQLDHTAPHLNSRIKDMPSACRFLDSYWQGHEEIRQISKSDDAILGWTKGRALVGGHRLFEMLKEGKVNPSPYMKISYEHGGAFLGDILLYDSRREPGSAIFVGNINSMLNNQFSPEYGVQSGVRDRSKRKRPFPGLAWASMKDTYGACPIYSDVLEAIERCWWNAFGESYRAYREDMLKRDTLELSRYVASMARQAGLAELTPIDLEVLADPNKLQYKWTEADVSANIHEVLMHGVSVEKTERFLRSVMPR
Maximum speed (bases/s) [5]: 120 bases/s | Processivity (bases) [2, 5]: 13,500 bases
